In patent US20230257390A1, “COMPOUNDS WHICH INHIBIT RNA POLYMERASE AND THEIR USE” (The Johns Hopkins University, priority 2020, published 2023):
Counter-ions that a name gives are not always drawn.

Tests used:
[1] = tested on: RPA194; assay: RPA194 immunofluorescence high-content imaging in A375 cells (Pol I inhibition); assay type: cell-based; conditions: treated for 4 hours, top concentration 10 μM
Experimental: Cell culture: A375 cells (CRL-1619, ATCC) were grown in DMEM (GIBCO) supplemented with 10% fetal bovine serum (GIBCO) in 5% CO2 at 37° C.
Cell treatment and Imaging: 18 hours post-seeding in cell carrier black 384-well plates (PerkinElmer) at 15 000 cells/well, A375 cells were treated for 4 hours with a positive control or test compounds (9 serial semi-log dilutions, top concentration 10 μM). Upon treatment A375 cells were (i) fixed for 15 min at RT with 4% of paraformaldehyde, (ii) permeabilized for 20 min at RT with 0.1-0.5% of NP-40, (iii) incubated with primary antibodies at 4° C.: anti-RPA194 (1:1000-1:1250 dilution, sc-48385, Santa Cruz Biotechnology) and anti-gH2Ax (1:5000 dilution, 81299, Abcam or 1:4000, JBW302, Millipore) (iv) incubated for 1 h at RT with Hoechst (1:5000 dilution, H3570, ThermoFisher) and secondary antibodies: anti-mouse-AlexaFluor488 (1:2000 dilution, A11001, ThermoFisher) and anti-rabbit-AlexaFluor647 (1:2000 dilution, A21443, ThermoFisher) or goat anti-mouse AlexaFluor-594 (1:1000 dilution). Images were acquired on an Operetta CLS High-Content Analysis System (PerkinElmer) (40× objective; 9 fields/well) and processed using the Columbus Image Analysis System (PerkinElmer) or by using Molecular Devices ImageXpress Micro XLS High Content Imager and MetaXpress high-content acquisition and analysis software.
In the table below, (+) is associated with a pIC50 5.02 to 5.8; (++) with pIC50 5.8 to 6.3; and plus sing (+++) with a pIC50 above 6.3.

[2] = tested on: NCI60 cancer cell lines; conditions: cited from earlier work
[3] = tested on: tumor burden; conditions: mouse xenograft assays; cited from earlier work

CN(C)CCNC(=O)c1cccn2c(=O)c3cc4c(cc3nc12)CCCC4 [Compound 111, N-(2-(dimethylamino)ethyl)-12-oxo-7,9,10,12-tetrahydro-8H-benzo[g]pyrido[2,1-b]quinazoline-4-carboxamide; hydrochloride]
Activity Range (pIC50) [1]: + ((+) is associated with a pIC50 5.02 to 5.8)

O=C(NCCN1CCC(O)CC1)c1cccn2c(=O)c3cc4c(cc3nc12)OC(F)(F)O4 [Compound 105, 2,2-difluoro-N-(2-(4-hydroxypiperidin-1-yl)ethyl)-11-oxo-11H-[1,3]dioxolo[4,5-g]pyrido[2,1-b]quinazoline-6-carboxamide; hydrochloride]
Activity Range (pIC50) [1]: ++ ((++) with pIC50 5.8 to 6.3)

Cc1ccc2c(=O)n3cccc(C(=O)NCCN4CCCC4)c3nc2c1 [Compound 116, 3-methyl-11-oxo-N-(2-(pyrrolidin-1-yl)ethyl)-11H-pyrido[2,1-b]quinazoline-6-carboxamide;hydrochloride]
Activity Range (pIC50) [1]: + ((+) is associated with a pIC50 5.02 to 5.8)

Cc1cc2nc3c(C(=O)NCCN(C)C)cccn3c(=O)c2cc1C [Compound 109, N-(2-(dimethylamino)ethyl)-2,3-dimethyl-11-oxo-11H-pyrido[2,1-b]quinazoline-6-carboxamide; hydrochloride]
Activity Range (pIC50) [1]: ++ ((++) with pIC50 5.8 to 6.3)

O=C(NCCN1CCCC1)c1cccn2c(=O)c3cc4c(cc3nc12)CCCC4 [Compound 112, 12-oxo-N-(2-(pyrrolidin-1-yl)ethyl)-7,9,10,12-tetrahydro-8H-benzo[g]pyrido[2,1-b]quinazoline-4-carboxamide; hydrochloride]
Activity Range (pIC50) [1]: ++ ((++) with pIC50 5.8 to 6.3)

Cc1cccc2c(=O)n3cccc(C(=O)NCCN4CCCC4)c3nc12 [Compound 117, 4-methyl-11-oxo-N-(2-(Pyrrolidin-1-Yl)ethyl)-11H-pyrido[2,1-b]quinazoline-6-carboxamide;hydrochloride]
Activity Range (pIC50) [1]: ++ ((++) with pIC50 5.8 to 6.3)

CN(C)CCNC(=O)c1cccn2c(=O)c3cc4c(cc3nc12)OCCO4 [Compound 114, N-(2-(dimethylamino)ethyl)-12-oxo-2,3-dihydro-12H-[1,4]dioxino[2,3-g]pyrido[2,1-b]quinazoline-7-carboxamide; hydrochloride]
Activity Range (pIC50) [1]: + ((+) is associated with a pIC50 5.02 to 5.8)

O=C(NCCN1CCCC1)c1cccn2c(=O)c3cc4c(cc3nc12)OCCO4 [Compound 113, 12-oxo-N-(2-(pyrrolidin-1-yl)ethyl)-2,3-dihydro-12H-[1,4]dioxino[2,3-2]pyrido[2,1-b]quinazoline-7-carboxamide; hydrochloride]
Activity Range (pIC50) [1]: + ((+) is associated with a pIC50 5.02 to 5.8)

Cc1ccc2c(=O)n3cccc(C(=O)NCCN4CC[C@@H](O)C4)c3nc2c1C [Compound 115, (R)-N-(2-(3-hydroxypyrrolidin-1-yl)ethyl)-3,4-dimethyl-11-oxo-11H-pyrido[2,1-b]quinazoline-6-carboxamide; hydrochloride]
Activity Range (pIC50) [1]: +++ ((+++) with a pIC50 above 6.3)

O=C1CCN(CCNC(=O)c2cccn3c(=O)c4cc5c(cc4nc23)OC(F)(F)O5)CC1 [Compound 103, 2,2-difluoro-11-oxo-N-(2-(4-oxopiperidin-1-yl)ethyl)-11H-[1,3]dioxolo[4,5-g]pyrido[2,1-b]quinazoline-6-carboxamide]
Activity Range (pIC50) [1]: ++ ((++) with pIC50 5.8 to 6.3)

Cc1ccc2c(=O)n3cccc(C(=O)NCCN4CCCC4)c3nc2c1C [Compound 120, 3,4-dimethyl-11-oxo-N-(2-(pyrrolidin-1-yl)ethyl)-11H-pyrido[2,1-b]quinazoline-6-carboxamide; hydrochloride]
Activity Range (pIC50) [1]: +++ ((+++) with a pIC50 above 6.3)

O=C(NCCN1CCCC1)c1cccn2c(=O)c3ccc4c(c3nc12)OC(F)(F)O4 [Compound 121, 2,2-difluoro-6-oxo-N-(2-(pyrrolidin-1-yl)ethyl)-6H-[1,3]dioxolo[4,5-h]pyrido[2,1-b]quinazoline-11-carboxamide;hydrochloride]
Activity Range (pIC50) [1]: + ((+) is associated with a pIC50 5.02 to 5.8)

O=C(NCCN1C[C@@H](O)[C@H](O)C1)c1cccn2c(=O)c3cc4c(cc3nc12)OC(F)(F)O4 [Compound 101, N-(2-((3R,4R)-3,4-dihydroxypyrrolidin-1-yl)ethyl)-2,2-difluoro-11-oxo-11H-[1,3]dioxolo[4,5-g]pyrido[2,1-b]quinazoline-6-carboxamide]
Activity Range (pIC50) [1]: + ((+) is associated with a pIC50 5.02 to 5.8)

O=C(NCCN1CCCC1)c1cccn2c(=O)c3cc4c(cc3nc12)OC(F)(F)O4 [Compound 107, 2,2-difluoro-11-oxo-N-(2-(pyrrolidin-1-yl)ethyl)-11H-[1,3]dioxolo[4,5-2]pyrido[2,1-b]quinazoline-6-carboxamide; hydrochloride]
Activity Range (pIC50) [1]: +++ ((+++) with a pIC50 above 6.3)

Cc1cc2nc3c(C(=O)NCCN4CCCC4)cccn3c(=O)c2cc1C [Compound 110, 2,3-dimethyl-11-oxo-N-(2-(pyrrolidin-1-yl)ethyl)-11H-pyrido[2,1-b]quinazoline-6-carboxamide; hydrochloride]
Activity Range (pIC50) [1]: ++ ((++) with pIC50 5.8 to 6.3)

CN(C)CCNC(=O)c1cccn2c(=O)c3cc4ccccc4cc3nc12 [BMH-21, 12H-Benzo[g]pyrido[2,1-b]quinazoline-4-carboxamide, N-[2(dimethylamino)ethyl]-12-oxo]
anticancer activity [2]: anticancer activity
tumor burden [3]: reduced tumor burden

O=C(NCCN1CCCC1)c1cccn2c(=O)c3cccc(-c4ccccc4)c3nc12 [Compound 118, 11-oxo-4-phenyl-N-(2-(pyrrolidin-1-yl)ethyl)-11H-pyrido[2,1-b]quinazoline-6-carboxamide; hydrochloride]
Activity Range (pIC50) [1]: + ((+) is associated with a pIC50 5.02 to 5.8)

CN(C)C(C)(C)CNC(=O)c1cccn2c(=O)c3cc4c(cc3nc12)OC(F)(F)O4 [Compound 106, N-(2-(dimethylamino)-2-methylpropyl)-2,2-difluoro-11-oxo-11H-[1,3]dioxolo[4,5-g]pyrido[2,1-b]quinazoline-6-carboxamide; hydrochloride]
Activity Range (pIC50) [1]: + ((+) is associated with a pIC50 5.02 to 5.8)

O=C(NCCN1CCCC1)c1cccn2c(=O)c3ccc(-c4ccccc4)cc3nc12 [Compound 119, 11-oxo-3-phenyl-N-(2-(pyrrolidin-1-yl)ethyl)-11H-pyrido[2,1-b]quinazoline-6-carboxamide; hydrochloride]
Activity Range (pIC50) [1]: + ((+) is associated with a pIC50 5.02 to 5.8)

CN(C)CCNC(=O)c1cccn2c(=O)c3cc4c(cc3nc12)OC(F)(F)O4 [Compound 104, N-(2-(dimethylamino)ethyl)-2,2-difluoro-11-oxo-11H-[1,3]dioxolo[4,5-g]pyrido[2,1-b]quinazoline-6-carboxamide; hydrochloride]
Activity Range (pIC50) [1]: + ((+) is associated with a pIC50 5.02 to 5.8)

O=C(NCCN1CCC(O)C1)c1cccn2c(=O)c3cc4c(cc3nc12)OC(F)(F)O4 (centres unmarked) [Compound 102, 2,2-difluoro-N-(2-(3-hydroxypyrrolidin-1-yl)ethyl)-11-oxo-11H-[1,3]dioxolo[4,5-g]pyrido[2,1-b]quinazoline-6-carboxamide; hydrochloride]
Activity Range (pIC50) [1]: + ((+) is associated with a pIC50 5.02 to 5.8)

O=C(NCCN1CCCC1)c1cccn2c(=O)c3cc4c(cc3nc12)OCO4 [Compound 108, 11-oxo-N-(2-(pyrrolidin-1-yl)ethyl)-11H-[1,3]dioxolo[4,5-g]pyrido[2,1-b]quinazoline-6-carboxamide; hydrochloride]
Activity Range (pIC50) [1]: ++ ((++) with pIC50 5.8 to 6.3)
